Reference: ChEMBL document CHEMBL5126637, “Discovery of Phenolic Matrix Metalloproteinase Inhibitors by Peptide Microarray for Osteosarcoma Treatment” (J Nat Prod, 2022)
Calls of active or inactive are those of the source. No cut-off for these calls is given here.

Assays:
Stromelysin-1 = Stromelysin-1 (Homo sapiens, UniProt P08254); assay: Inhibition of MMP3 in human U2OS cells at 5 umol/L by peptide microarray-based fluorescence assay; format: cell-based; settings: dose 5.0 µmol/L
[1] = target: 72 kDa type IV collagenase (Homo sapiens, UniProt P08253); assay: Inhibition of MMP2 in human U2OS cells at 5 umol/L by peptide microarray-based fluorescence assay; format: cell-based; settings: dose 5.0 µmol/L
[2] = target: T1, Interstitial collagenase (Homo sapiens) (UniProt P03956); assay: Inhibition of MMP1 in human U2OS cells at 5 umol/L by peptide microarray-based fluorescence assay; format: cell-based; settings: dose 5.0 µmol/L
T1 sequence (whole entry): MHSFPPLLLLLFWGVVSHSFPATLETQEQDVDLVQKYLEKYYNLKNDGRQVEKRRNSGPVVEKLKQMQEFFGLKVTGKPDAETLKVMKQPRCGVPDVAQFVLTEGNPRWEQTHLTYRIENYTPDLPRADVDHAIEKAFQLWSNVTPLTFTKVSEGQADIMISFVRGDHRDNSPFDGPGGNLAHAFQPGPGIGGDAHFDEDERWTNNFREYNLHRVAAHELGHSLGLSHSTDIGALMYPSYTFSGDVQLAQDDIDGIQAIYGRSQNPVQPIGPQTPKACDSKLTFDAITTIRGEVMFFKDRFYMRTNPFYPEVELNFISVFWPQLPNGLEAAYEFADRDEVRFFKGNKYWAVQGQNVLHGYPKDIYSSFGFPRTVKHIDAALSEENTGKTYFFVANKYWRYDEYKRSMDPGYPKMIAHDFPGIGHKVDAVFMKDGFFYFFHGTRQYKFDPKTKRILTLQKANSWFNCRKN

[3] = target: T2, Matrilysin (Homo sapiens) (UniProt P09237); assay: Inhibition of MMP7 in human U2OS cells at 5 umol/L by peptide microarray-based fluorescence assay; format: cell-based; settings: dose 5.0 µmol/L
T2 sequence (whole entry): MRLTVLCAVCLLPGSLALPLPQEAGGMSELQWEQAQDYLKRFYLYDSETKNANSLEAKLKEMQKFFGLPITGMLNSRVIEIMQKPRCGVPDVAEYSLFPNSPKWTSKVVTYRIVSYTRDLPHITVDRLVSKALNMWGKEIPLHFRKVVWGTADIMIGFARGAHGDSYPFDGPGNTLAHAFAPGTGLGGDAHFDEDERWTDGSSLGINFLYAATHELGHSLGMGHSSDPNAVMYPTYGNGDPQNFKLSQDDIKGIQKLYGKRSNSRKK

[4] = target: T3, Matrix metalloproteinase-9 (Homo sapiens, UniProt P14780); assay: Inhibition of MMP9 in human U2OS cells at 5 umol/L by peptide microarray-based fluorescence assay; format: cell-based; settings: dose 5.0 µmol/L
Collagenase 3 = Collagenase 3 (Homo sapiens, UniProt P45452); assay: Inhibition of MMP13 in human U2OS cells at 5 umol/L by peptide microarray-based fluorescence assay; format: cell-based; settings: dose 5.0 µmol/L
[5] = target: T1, Interstitial collagenase (Homo sapiens); assay: Inhibition of MMP1 in human U2OS cells at 1 umol/L by peptide microarray-based fluorescence assay; format: cell-based; settings: dose 1.0 µmol/L
[6] = Toxicity in Kunming mouse assessed as effect on blood components measured after 14 days; settings: in vivo, 336 h, time 14 day
[7] = Toxicity in human HL7702 cells assessed as cell viability at 2.5 umol/L incubated for 24 hrs by MTT assay relative to control; format: cell-based, L02; settings: dose 2.5 µmol/L, read-out: Activity
U2OS [8] = assay: Antitumor activity against human U2OS cells xenografted in NOD/SCID mouse assessed as inhibition of tumor growth at 30 ug, iv dosed once every 2 days for 6 days successively relative to control; format: functional; settings: dose 30 µg, time 6 day
[9] = Toxicity in human MCF7 cells assessed as cell viability at 2.5 umol/L incubated for 24 hrs by MTT assay relative to control; format: cell-based; settings: dose 2.5 µmol/L, read-out: Activity
[10] = Toxicity in Kunming mouse assessed as effect on body weight changes measured after 14 days; settings: in vivo, 336 h, time 14 day
[11] = Toxicity in human U2OS cells assessed as cell viability at 2.5 umol/L incubated for 24 hrs by MTT assay relative to control; format: cell-based; settings: dose 2.5 µmol/L, read-out: Activity
U2OS [12] = assay: Antitumor activity against human U2OS cells xenografted in NOD/SCID mouse assessed as inhibition of growth of both primary and metastatic tumors at 30 ug, iv dosed once every 2 days for 6 days successively relative to control; format: functional, organism-based; settings: dose 30.0 µg, time 6.0 day
U2OS [13] = assay: Antitumor activity against human U2OS cells xenografted in NOD/SCID mouse assessed as time duration with 100% survival with at 30 ug, iv dosed once every 2 days for 6 days successively relative to control; format: functional; settings: dose 30 µg, time 6 day
[14] = Toxicity in human MDA-MB-231 cells assessed as cell viability at 2.5 umol/L incubated for 24 hrs by MTT assay relative to control; format: cell-based; settings: dose 2.5 µmol/L, read-out: Activity
U2OS [15] = assay: Antitumor activity against human U2OS cells xenografted in NOD/SCID mouse assessed as inhibition of distant organ metastasis at 30 ug, iv dosed once every 2 days for 6 days successively relative to control; format: functional, organism-based; settings: dose 30.0 µg
[16] = Toxicity in Kunming mouse assessed as induction of adverse effect or tissue damage in major organs measured after 14 days; settings: in vivo, 336 h, time 14 day
U2OS [17] = assay: Inhibition of cell migration of human U2OS cells at 2.5 umol/L incubated for 24 hrs by would healing assay; format: functional, cell-based; settings: dose 2.5 µmol/L
[18] = target: T3, Matrix metalloproteinase-9; assay: Inhibition of MMP9 in human U2OS cells at 1 umol/L by peptide microarray-based fluorescence assay; format: cell-based; settings: dose 1.0 µmol/L
[19] = target: T3, Matrix metalloproteinase-9; assay: Inhibition of MMP9 in human U2OS cells by peptide microarray-based fluorescence assay; format: cell-based
[20] = Toxicity in human HEK293T cells assessed as cell viability at 2.5 umol/L incubated for 24 hrs by MTT assay relative to control; format: cell-based, HEK-293T; settings: dose 2.5 µmol/L, read-out: Activity
[21] = Toxicity in human HCT-116 cells assessed as cell viability at 2.5 umol/L incubated for 24 hrs by MTT assay relative to control; format: cell-based; settings: dose 2.5 µmol/L, read-out: Activity
[22] = Toxicity in human NCM460 cells assessed as cell viability at 2.5 umol/L incubated for 24 hrs by MTT assay relative to control; format: cell-based; settings: dose 2.5 µmol/L, read-out: Activity

T3 sequence (P14780 whole entry): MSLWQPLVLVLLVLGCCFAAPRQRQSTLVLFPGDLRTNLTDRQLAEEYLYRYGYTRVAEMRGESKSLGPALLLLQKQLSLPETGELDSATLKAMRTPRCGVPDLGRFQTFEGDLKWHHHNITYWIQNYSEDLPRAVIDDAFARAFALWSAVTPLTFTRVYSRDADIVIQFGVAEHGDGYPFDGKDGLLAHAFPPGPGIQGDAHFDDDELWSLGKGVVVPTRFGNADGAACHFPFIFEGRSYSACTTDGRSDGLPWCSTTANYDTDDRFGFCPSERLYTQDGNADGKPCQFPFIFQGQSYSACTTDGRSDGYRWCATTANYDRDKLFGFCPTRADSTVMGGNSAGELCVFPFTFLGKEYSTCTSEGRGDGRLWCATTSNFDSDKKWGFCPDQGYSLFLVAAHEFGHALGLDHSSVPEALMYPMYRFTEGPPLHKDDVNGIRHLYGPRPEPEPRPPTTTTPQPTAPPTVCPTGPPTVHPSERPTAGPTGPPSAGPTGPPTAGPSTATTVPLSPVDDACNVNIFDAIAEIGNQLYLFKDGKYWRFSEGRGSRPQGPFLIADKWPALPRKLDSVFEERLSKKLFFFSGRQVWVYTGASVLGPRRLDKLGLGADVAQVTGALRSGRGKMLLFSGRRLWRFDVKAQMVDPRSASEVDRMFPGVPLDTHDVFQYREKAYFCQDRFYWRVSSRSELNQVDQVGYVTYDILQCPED
Chain of 72 kDa type IV collagenase (P08253 110-660 limits assumed): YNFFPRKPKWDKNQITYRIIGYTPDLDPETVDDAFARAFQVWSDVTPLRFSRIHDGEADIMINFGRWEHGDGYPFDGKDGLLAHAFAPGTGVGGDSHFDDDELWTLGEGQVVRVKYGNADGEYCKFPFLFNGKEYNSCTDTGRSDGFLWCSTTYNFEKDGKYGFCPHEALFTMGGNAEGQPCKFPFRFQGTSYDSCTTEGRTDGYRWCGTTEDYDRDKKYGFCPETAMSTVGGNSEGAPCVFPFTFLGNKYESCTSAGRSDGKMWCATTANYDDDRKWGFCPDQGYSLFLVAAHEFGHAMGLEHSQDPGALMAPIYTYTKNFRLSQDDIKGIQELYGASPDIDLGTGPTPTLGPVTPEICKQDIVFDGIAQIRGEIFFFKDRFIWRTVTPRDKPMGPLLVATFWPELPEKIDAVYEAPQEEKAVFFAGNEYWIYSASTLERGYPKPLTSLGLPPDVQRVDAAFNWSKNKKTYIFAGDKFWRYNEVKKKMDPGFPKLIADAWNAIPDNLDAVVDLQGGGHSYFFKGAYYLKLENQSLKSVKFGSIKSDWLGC
Chain of Stromelysin-1 (P08254 100-477 limits assumed): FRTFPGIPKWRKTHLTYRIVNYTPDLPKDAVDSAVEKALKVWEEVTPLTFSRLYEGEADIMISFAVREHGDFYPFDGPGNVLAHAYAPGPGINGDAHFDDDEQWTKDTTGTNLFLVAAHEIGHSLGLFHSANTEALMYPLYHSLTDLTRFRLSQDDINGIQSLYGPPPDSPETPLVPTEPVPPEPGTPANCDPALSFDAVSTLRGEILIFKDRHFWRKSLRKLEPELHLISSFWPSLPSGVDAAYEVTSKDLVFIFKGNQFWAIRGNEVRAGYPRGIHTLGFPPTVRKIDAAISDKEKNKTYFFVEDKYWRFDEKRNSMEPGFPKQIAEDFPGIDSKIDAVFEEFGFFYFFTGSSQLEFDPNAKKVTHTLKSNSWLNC

## O=C1C[C@@H](c2ccc(O)cc2)Oc2cc(O)ccc21
Stromelysin-1
  inhibition: > 50%
[1]
  inhibition: > 50%
[2]
  inhibition: > 50%
[3]
  inhibition: > 50%
[4]
  inhibition: > 50%
Collagenase 3
  inhibition: > 50%

## O=C(O)[C@H]1O[C@@H](Oc2cc3oc(-c4ccc(O)cc4)cc(=O)c3c(O)c2O)[C@H](O)[C@@H](O)[C@@H]1O
[1]
  inhibition: > 50%
[2]
  inhibition: > 50%
[3]
  inhibition: > 50%
[4]
  inhibition: > 50%
Collagenase 3
  inhibition: > 50%

## COc1ccc(-c2coc3cc(O[C@@H]4O[C@H](CO)[C@@H](O)[C@H](O)[C@H]4O)ccc3c2=O)cc1
[4]
  inhibition: > 50%

## O=c1c2cc(O)c(O)cc2oc2cc(O)c([C@@H]3O[C@H](CO)[C@@H](O)[C@H](O)[C@H]3O)c(O)c12 [MANGIFERIN]
[5]
  inhibition: Active
[6]
  Activity: Non-Toxic
[7]
  viability at 24 h, 2.5 µM: > 90%
U2OS [8]
  TGI: 35%
[9]
  viability at 24 h, 2.5 µM: > 90%
[10]
  Activity: Non-Toxic
[11]
  viability at 24 h, 2.5 µM: > 90%
U2OS [12]
  inhibition: Active
[2]
  inhibition: > 50%
U2OS [13]
  Survival: 41 days
[14]
  viability at 24 h, 2.5 µM: > 90%
U2OS [15]
  inhibition: Active
[16]
  Activity: Non-Toxic
U2OS [17]
  inhibition: Active
[4]
  inhibition: > 50%
[18]
  inhibition: Active
[19]
  IC50: 0.25 µM
[20]
  viability at 24 h, 2.5 µM: > 90%
[21]
  viability at 24 h, 2.5 µM: > 90%
[22]
  viability at 24 h, 2.5 µM: > 90%

## C=CC(C)(C)c1cc(/C=C/C(=O)c2ccc(O)cc2)c(OC)cc1O
[2]
  inhibition: > 50%
